Test results as given in article PMC9848257, “Design and synthesis of novel rigid dibenzo[b,f]azepines through ring closure technique as promising anticancer candidates against leukaemia and acting as selective topoisomerase II inhibitors and DNA intercalators” (Journal of Enzyme Inhibition and Medicinal Chemistry, 2023).

How the values were obtained:
Assay type in all cases: cell-based
CCRF-CEM = experiment: NCI-60 one-dose screen, CCRF-CEM; settings: Homo sapiens, leukaemia, single dose 10 μM, read-out: Growth inhibition %
Protocol: (§1) Anti-proliferative effects of the counterparts 4a–g and 5a–g were screened against 60 human cancer cell lines, following the Developmental Therapeutics Program protocol, National Cancer Institute[35].
(§2) The anti-tumour activity of the fourteen synthesised congeners was investigated at the NCI against a panel of 60 cancer cell lines (NCI-60 Cell One-Dose Screen). The tested dibenzo[b,f]azepine derivatives were screened at a single dose level (10 μM), Table 1.

SR = experiment: NCI-60 one-dose screen, SR; settings: Homo sapiens, leukaemia, single dose 10 μM, read-out: Growth inhibition %
Protocol: as §1, §2

EKVX = experiment: NCI-60 one-dose screen, EKVX; settings: Homo sapiens, non-small cell lung cancer, single dose 10 μM, read-out: Growth inhibition %
Protocol: as §1, §2

HOP-62 = experiment: NCI-60 one-dose screen, HOP-62; settings: Homo sapiens; HOP-62, non-small cell lung cancer; single dose 10 μM; read-out: Growth inhibition %
Protocol: as §1, §2

NCI-H226 = experiment: NCI-60 one-dose screen, NCI-H226; settings: Homo sapiens; NCI-H226, non-small cell lung cancer; single dose 10 μM; read-out: Growth inhibition %
Protocol: as §1, §2

NCI-H23 = experiment: NCI-60 one-dose screen, NCI-H23; settings: Homo sapiens; NCI-H23, non-small cell lung cancer; single dose 10 μM; read-out: Growth inhibition %
Protocol: as §1, §2

NCI-H322M = experiment: NCI-60 one-dose screen, NCI-H322M; settings: Homo sapiens, non-small cell lung cancer, single dose 10 μM, read-out: Growth inhibition %
Protocol: as §1, §2

COLO 205 = experiment: NCI-60 one-dose screen, COLO 205; settings: Homo sapiens; COLO 205, colon cancer; single dose 10 μM; read-out: Growth inhibition %
Protocol: as §1, §2

HCC-2998 = experiment: NCI-60 one-dose screen, HCC-2998; settings: Homo sapiens; HCC-2998, colon cancer; single dose 10 μM; read-out: Growth inhibition %
Protocol: as §1, §2

HCT-116 = experiment: NCI-60 one-dose screen, HCT-116; settings: Homo sapiens; HCT-116, colon cancer; single dose 10 μM; read-out: Growth inhibition %
Protocol: as §1, §2

HT29 = experiment: NCI-60 one-dose screen, HT29; settings: Homo sapiens, HT-29; HT29, colon cancer; single dose 10 μM; read-out: Growth inhibition %
Protocol: as §1, §2

SW-620 = experiment: NCI-60 one-dose screen, SW-620; settings: Homo sapiens; SW-620, colon cancer; single dose 10 μM; read-out: Growth inhibition %
Protocol: as §1, §2

SF-268 = experiment: NCI-60 one-dose screen, SF-268; settings: Homo sapiens; SF-268, CNS cancer; single dose 10 μM; read-out: Growth inhibition %
Protocol: as §1, §2

SF-539 = experiment: NCI-60 one-dose screen, SF-539; settings: Homo sapiens; SF-539, CNS cancer; single dose 10 μM; read-out: Growth inhibition %
Protocol: as §1, §2

U251 = experiment: NCI-60 one-dose screen, U251; settings: Homo sapiens, U-251; U251, CNS cancer; single dose 10 μM; read-out: Growth inhibition %
Protocol: as §1, §2

MALME-3M = experiment: NCI-60 one-dose screen, MALME-3M; settings: Homo sapiens, melanoma, single dose 10 μM, read-out: Growth inhibition %
Protocol: as §1, §2

M14 = experiment: NCI-60 one-dose screen, M14; settings: Homo sapiens; M14, melanoma; single dose 10 μM; read-out: Growth inhibition %
Protocol: as §1, §2

MDA-MB-435 = experiment: NCI-60 one-dose screen, MDA-MB-435; settings: Homo sapiens; MDA-MB-435, melanoma; single dose 10 μM; read-out: Growth inhibition %
Protocol: as §1, §2

SK-MEL-28 = experiment: NCI-60 one-dose screen, SK-MEL-28; settings: Homo sapiens; SK-MEL-28, melanoma; single dose 10 μM; read-out: Growth inhibition %
Protocol: as §1, §2

SK-MEL-5 = experiment: NCI-60 one-dose screen, SK-MEL-5; settings: Homo sapiens; SK-MEL-5, melanoma; single dose 10 μM; read-out: Growth inhibition %
Protocol: as §1, §2

UACC-257 = experiment: NCI-60 one-dose screen, UACC-257; settings: Homo sapiens; UACC-257, melanoma; single dose 10 μM; read-out: Growth inhibition %
Protocol: as §1, §2

UACC-62 = experiment: NCI-60 one-dose screen, UACC-62; settings: Homo sapiens; UACC-62, melanoma; single dose 10 μM; read-out: Growth inhibition %
Protocol: as §1, §2

OVCAR-3 = experiment: NCI-60 one-dose screen, OVCAR-3; settings: Homo sapiens; OVCAR-3, ovarian cancer; single dose 10 μM; read-out: Growth inhibition %
Protocol: as §1, §2

OVCAR-4 = experiment: NCI-60 one-dose screen, OVCAR-4; settings: Homo sapiens; OVCAR-4, ovarian cancer; single dose 10 μM; read-out: Growth inhibition %
Protocol: as §1, §2

NCI/ADR-RES = experiment: NCI-60 one-dose screen, NCI/ADR-RES; settings: Homo sapiens, ovarian cancer, single dose 10 μM, read-out: Growth inhibition %
Protocol: as §1, §2

786-0 = experiment: NCI-60 one-dose screen, 786-0; settings: Homo sapiens; 786-0, renal cancer; single dose 10 μM; read-out: Growth inhibition %
Protocol: as §1, §2

CAKI-1 = experiment: NCI-60 one-dose screen, CAKI-1; settings: Homo sapiens; CAKI-1, renal cancer; single dose 10 μM; read-out: Growth inhibition %
Protocol: as §1, §2

RXF 393 = experiment: NCI-60 one-dose screen, RXF 393; settings: Homo sapiens; RXF 393, renal cancer; single dose 10 μM; read-out: Growth inhibition %
Protocol: as §1, §2

UO-31 = experiment: NCI-60 one-dose screen, UO-31; settings: Homo sapiens; UO-31, renal cancer; single dose 10 μM; read-out: Growth inhibition %
Protocol: as §1, §2

PC-3 = experiment: NCI-60 one-dose screen, PC-3; settings: Homo sapiens; PC-3, prostate cancer; single dose 10 μM; read-out: Growth inhibition %
Protocol: as §1, §2

DU-145 = experiment: NCI-60 one-dose screen, DU-145; settings: Homo sapiens; DU-145, prostate cancer; single dose 10 μM; read-out: Growth inhibition %
Protocol: as §1, §2

MDA-MB-231-ATCC = experiment: NCI-60 one-dose screen, MDA-MB-231-ATCC; settings: Homo sapiens, breast cancer, single dose 10 μM, read-out: Growth inhibition %
Protocol: as §1, §2

HS 578 T = experiment: NCI-60 one-dose screen, HS 578 T; settings: Homo sapiens, breast cancer, single dose 10 μM, read-out: Growth inhibition %
Protocol: as §1, §2

T-47D = experiment: NCI-60 one-dose screen, T-47D; settings: Homo sapiens, T47D, breast cancer, single dose 10 μM, read-out: Growth inhibition %
Protocol: as §1, §2

Structure (SMILES) | inhibition at 10 µM (CCRF-CEM) [%] | inhibition at 10 µM (SR) [%] | inhibition at 10 µM (EKVX) [%] | inhibition at 10 µM (HOP-62) [%] | inhibition at 10 µM (NCI-H226) [%] | inhibition at 10 µM (NCI-H23) [%] | inhibition at 10 µM (NCI-H322M) [%] | inhibition at 10 µM (COLO 205) [%] | inhibition at 10 µM (HCC-2998) [%] | inhibition at 10 µM (HCT-116) [%] | inhibition at 10 µM (HT29) [%] | inhibition at 10 µM (SW-620) [%] | inhibition at 10 µM (SF-268) [%] | inhibition at 10 µM (SF-539) [%] | inhibition at 10 µM (MALME-3M) [%] | inhibition at 10 µM (M14) [%] | inhibition at 10 µM (MDA-MB-435) [%] | inhibition at 10 µM (SK-MEL-28) [%] | inhibition at 10 µM (SK-MEL-5) [%] | inhibition at 10 µM (UACC-257) [%] | further results
O=C(NNC(=O)N1c2ccccc2C=Cc2ccccc21)c1ccc(Cl)cc1 [Compound 4c, N′-(4-Chlorobenzoyl)-5H-dibenzo[b,f]azepine-5-carbohydrazide] | < 10 | < 10 | < 10 | < 10 | < 10 | < 10 | < 10 | < 10 | < 10 | < 10 | < 10 | < 10 | < 10 | < 10 | < 10 | < 10 | < 10 | < 10 | < 10 | 12.6 | inhibition at 10 µM (U251): < 10%; inhibition at 10 µM (UACC-62): < 10%; inhibition at 10 µM (OVCAR-3): < 10%; inhibition at 10 µM (OVCAR-4): < 10%; inhibition at 10 µM (NCI/ADR-RES): < 10%; inhibition at 10 µM (786-0): < 10%; inhibition at 10 µM (CAKI-1): < 10%; inhibition at 10 µM (RXF 393): < 10%; inhibition at 10 µM (UO-31): < 10%; inhibition at 10 µM (PC-3): < 10%; inhibition at 10 µM (DU-145): < 10%; inhibition at 10 µM (MDA-MB-231-ATCC): < 10%; inhibition at 10 µM (HS 578 T): < 10%; inhibition at 10 µM (T-47D): < 10%
Cc1ccc(C(=O)NNC(=O)N2c3ccccc3C=Cc3ccccc32)cc1 [Compound 4d, N′-(4-Methylbenzoyl)-5H-dibenzo[b,f]azepine-5-carbohydrazide] | < 10 | < 10 | < 10 | < 10 | < 10 | < 10 | < 10 | < 10 | < 10 | < 10 | < 10 | < 10 | < 10 | < 10 | < 10 | < 10 | < 10 | < 10 | < 10 | < 10 | inhibition at 10 µM (U251): < 10%; inhibition at 10 µM (UACC-62): < 10%; inhibition at 10 µM (OVCAR-3): < 10%; inhibition at 10 µM (OVCAR-4): < 10%; inhibition at 10 µM (NCI/ADR-RES): < 10%; inhibition at 10 µM (786-0): < 10%; inhibition at 10 µM (CAKI-1): < 10%; inhibition at 10 µM (RXF 393): < 10%; inhibition at 10 µM (UO-31): < 10%; inhibition at 10 µM (PC-3): < 10%; inhibition at 10 µM (DU-145): < 10%; inhibition at 10 µM (MDA-MB-231-ATCC): < 10%; inhibition at 10 µM (HS 578 T): < 10%; inhibition at 10 µM (T-47D): < 10%
O=[N+]([O-])c1ccc(-c2nnc(N3c4ccccc4C=Cc4ccccc43)o2)cc1 [Compound 5e, 2-(5 h-Dibenzo[b,f]azepin-5-yl)-5–(4-nitrophenyl)-1,3,4-oxadiazole] | < 10 | 30.1 | < 10 | < 10 | 13.7 | < 10 | 4.97 | < 10 | < 10 | < 10 | < 10 | < 10 | 16.1 | < 10 | < 10 | < 10 | < 10 | < 10 | 13.7 | < 10 | inhibition at 10 µM (UACC-62): 30%; inhibition at 10 µM (OVCAR-3): < 10%; inhibition at 10 µM (OVCAR-4): 21.8%; inhibition at 10 µM (NCI/ADR-RES): < 10%; inhibition at 10 µM (786-0): < 10%; inhibition at 10 µM (CAKI-1): 29.7%; inhibition at 10 µM (RXF 393): < 10%; inhibition at 10 µM (UO-31): 30.7%; inhibition at 10 µM (PC-3): 24.6%; inhibition at 10 µM (DU-145): < 10%; inhibition at 10 µM (MDA-MB-231-ATCC): 15.3%; inhibition at 10 µM (HS 578 T): < 10%; inhibition at 10 µM (T-47D): 18.4%
